Reference: patent US10172358B2, “Thiopicolinamide compounds with fungicidal activity” (Dow AgroSciences LLC, priority 2016, dated 2019)
Where two headings read alike, the source gives them in different places.

Columns and labels:
[1] = test system: Zymoseptoria tritici; assay: Fungicidal activity: leaf blotch of wheat (SEPTTR), disease control on wheat seedlings; type: in vivo, Zymoseptoria tritici on wheat plants (variety Yuma); conditions: for pest or weed control at 100 ppm: high volume application; for pest or weed control at 121.5 g/ha: low volume application, 121.5 g/H
Experimental: Evaluation of Fungicidal Activity: Leaf Blotch of Wheat (Zymoseptoria Tritici; Bayer Code […]) Technical grades of materials were dissolved in acetone, which were then mixed with nine volumes of water (H2O) containing 110 ppm Triton X-100. The fungicide solutions were applied onto wheat seedlings using an automated booth sprayer to run-off. All sprayed plants were allowed to air dry prior to further handling. All fungicides were evaluated using the aforementioned method for their activity vs. all target diseases, unless stated otherwise. Wheat leaf blotch and brown rust activity were also evaluated using track spray applications, in which case the fungicides were formulated as EC formulations, containing 0.1% Trycol 5941 in the spray solutions. Wheat plants (variety Yuma) were grown from seed in a greenhouse in 50% mineral soil/50% soil-less Metro mix until the first leaf was fully emerged, with 7-10 seedlings per pot. These plants were inoculated with an aqueous spore suspension of Zymoseptoria tritici either prior to or after fungicide treatments. After inoculation the plants were kept in 100% relative humidity (one day in a dark dew chamber followed by two to three days in a lighted dew chamber at 20° C.) to permit spores to germinate and infect the leaf. The plants were then transferred to a greenhouse set at 20° C. for disease to develop. When disease symptoms were fully expressed on the 1st leaves of untreated plants, infection levels were assessed on a scale of 0 to 100 percent disease severity. Percent disease control was calculated using the ratio of disease severity on treated plants relative to untreated plants.

[2] = test system: Puccinia triticina; assay: Fungicidal activity: wheat brown rust (PUCCRT), disease control on wheat seedlings; type: in vivo, Puccinia triticina on wheat plants (variety Yuma); conditions: for pest or weed control at 100 ppm: high volume application; for pest or weed control at 121.5 g/ha: low volume application, 121.5 g/H
Experimental: Technical grades of materials were dissolved in acetone, which were then mixed with nine volumes of water (H2O) containing 110 ppm Triton X-100. The fungicide solutions were applied onto wheat seedlings using an automated booth sprayer to run-off. All sprayed plants were allowed to air dry prior to further handling. All fungicides were evaluated using the aforementioned method for their activity vs. all target diseases, unless stated otherwise. Wheat leaf blotch and brown rust activity were also evaluated using track spray applications, in which case the fungicides were formulated as EC formulations, containing 0.1% Trycol 5941 in the spray solutions. Evaluation of Fungicidal Activity: Wheat Brown Rust (Puccinia triticina; Synonym: Puccinia recondita f. Sp. Tritici; Bayer Code PUCCRT) Wheat plants (variety Yuma) were grown from seed in a greenhouse in 50% mineral soil/50% soil-less Metro mix until the first leaf was fully emerged, with 7-10 seedlings per pot. These plants were inoculated with an aqueous spore suspension of Puccinia triticina either prior to or after fungicide treatments. After inoculation the plants were kept in a dark dew room at 22° C. with 100% relative humidity overnight to permit spores to germinate and infect the leaf. The plants were then transferred to a greenhouse set at 24° C. for disease to develop. Fungicide formulation, application and disease assessment followed the procedures as described in the Example A. The results of the evalution are shown below in Table 4.

[3] = test system: Phakopsora pachyrhizi; assay: Fungicidal activity: Asian soybean rust (PHAKPA), disease control on soybean seedlings; type: in vivo
Experimental: Evaluation of Fungicidal Activity: Asian Soybean Rust (Phakopsora Pachyrhizi; Bayer Code PHAKPA)
Technical grades of materials were dissolved in acetone, which were then mixed with nine volumes of H2O containing 0.011% Tween 20. The fungicide solutions were applied onto soybean seedlings using an automated booth sprayer to run-off. All sprayed plants were allowed to air dry prior to further handling.
Soybean plants (variety Williams 82) were grown in soil-less Metro mix, with one plant per pot. Two weeks old seedlings were used for testing. Plants were inoculated either 3 days prior to or 1 day after fungicide treatments. Plants were incubated for 24 h in a dark dew room at 22° C. and 100% relative humidity then transferred to a growth room at 23° C. for disease to develop. Disease severity was assessed on the sprayed leaves.

[4] = 24 h, 1 day protectant, read-out: SEPTTR 1DP disease control, HV activity at 100 ppm
[5] = 72 h, 3 day curative, read-out: SEPTTR 3DC disease control, HV activity at 100 ppm
[6] = 24 h, 1 day protectant, read-out: PUCCRT 1DP disease control, HV activity at 100 ppm
[7] = 72 h, 3 day curative, read-out: PUCCRT 3DC disease control, HV activity at 100 ppm
[8] = 24 h, 1 day protectant, read-out: SEPTTR 1DP disease control, LV activity at 121.5 g/H
[9] = 72 h, 3 day curative, read-out: SEPTTR 3DC disease control, LV activity at 121.5 g/H
[10] = 24 h, 1 day protectant, read-out: PUCCRT 1DP disease control, LV activity at 121.5 g/H
[11] = 72 h, 3 day curative, read-out: PUCCRT 3DC disease control, LV activity at 121.5 g/H
[12] = 24 h, 1 day protectant, read-out: PHAKPA 1DP disease control at 25 ppm
[13] = 72 h, 3 day curative, read-out: PHAKPA 3DC disease control at 25 ppm

Row | SMILES | pest or weed control at 100 ppm [1, 4] [%] | pest or weed control at 100 ppm [1, 5] [%] | pest or weed control at 100 ppm [2, 6] [%] | pest or weed control at 100 ppm [2, 7] [%] | melting point [°C] | pest or weed control at 121.5 g/ha [1, 8] [%] | pest or weed control at 121.5 g/ha [1, 9] [%] | pest or weed control at 121.5 g/ha [2, 10] [%] | pest or weed control at 121.5 g/ha [2, 11] [%] | pest or weed control at 25 ppm [3, 12] [%] | pest or weed control at 25 ppm [3, 13] [%]
1 | COc1cc(F)ccc1C(c1ccc(F)cc1OC)[C@H](C)OC(=O)[C@H](C)NC(=S)c1nccc(OC)c1O [Compound 23] | > 80 | > 80 | > 80 | ≤ 80 | 59 to 75 | – | – | – | – | – | –
2 | COc1cc(F)ccc1[C@@H](c1ccc(F)cc1)[C@H](C)OC(=O)[C@H](C)NC(=S)c1nccc(OC)c1O [Compound 24] | > 80 | > 80 | > 80 | ≤ 80 | 54 to 70 | – | – | – | – | – | –
3 | CC[C@H](OC(=O)[C@H](C)NC(=S)c1nccc(OC)c1O)[C@@H](C)Oc1ccccc1 [Compound 25] | – | – | ≤ 80 | – | 80 to 86 | – | – | – | – | – | –
4 | COc1ccnc(C(=S)N[C@@H](C)C(=O)O[C@@H](C)[C@@H](c2ccccc2)c2ccc(F)cc2C)c1O [Compound 26] | > 80 | > 80 | > 80 | ≤ 80 | 152 to 159 | – | – | – | – | – | –
5 | COc1ccnc(C(=S)N[C@@H](C)C(=O)O[C@@H](C(C)C)[C@@H](C)Oc2ccccc2)c1O [Compound 27] | – | ≤ 80 | ≤ 80 | – | 46 to 63 | – | – | – | – | – | –
6 | COc1ccnc(C(=S)N[C@H](C)C(=O)O[C@H](C)C(c2ccc(F)cc2)c2ccc(F)cc2)c1O [Compound 28] | – | – | – | – | 53 to 64 | – | – | – | – | – | –
7 | COc1cc(C)ccc1C(c1ccc(C)cc1OC)[C@H](C)OC(=O)[C@H](C)NC(=S)c1nccc(OC)c1O [Compound 29] | > 80 | > 80 | > 80 | > 80 | 60 to 72 | – | – | – | – | – | –
8 | COc1ccnc(C(=S)N[C@@H](C)C(=O)O[C@@H](C)[C@H](Oc2ccccc2)c2ccc(F)cc2Cl)c1O [Compound 30] | > 80 | > 80 | > 80 | ≤ 80 | 50 to 60 | – | – | – | – | – | –
9 | COc1ccnc(C(=S)N[C@@H](C)C(=O)O[C@@H](C)[C@@H](c2ccc(F)cc2)c2ccc(F)cc2C)c1O [Compound 31] | > 80 | > 80 | > 80 | ≤ 80 | 57 to 68 | – | – | – | – | – | –
10 | COc1ccnc(C(=S)N[C@@H](C)C(=O)O[C@@H](C)C(c2ccc(F)cc2F)c2ccc(F)cc2F)c1O [Compound 32] | ≤ 80 | > 80 | ≤ 80 | ≤ 80 | 50 to 61 | – | – | – | – | – | –
11 | COc1ccnc(C(=S)N[C@@H](C)C(=O)O[C@@H](C)[C@H](Oc2cccc(F)c2)C(C)C)c1O [Compound 33] | > 80 | ≤ 80 | > 80 | > 80 | 132 to 141 | – | – | – | – | – | –
12 | COc1ccnc(C(=S)N[C@@H](C)C(=O)O[C@@H](C)[C@H](Oc2ccccc2)c2ccc(F)cc2C)c1O [Compound 35] | > 80 | > 80 | > 80 | ≤ 80 | 45 to 57 | – | – | – | – | – | –
13 | COc1ccnc(C(=S)N[C@@H](C)C(=O)O[C@H](C(C)C)[C@H](C)Oc2ccc(F)cc2)c1O [Compound 36] | > 80 | ≤ 80 | > 80 | > 80 | 141 to 148 | – | – | – | – | – | –
14 | CCC[C@@H](Oc1ccc(C)cc1)[C@H](C)OC(=O)[C@H](C)NC(=S)c1nccc(OC)c1O [Compound 37] | ≤ 80 | – | > 80 | > 80 | 125 to 133 | – | – | – | – | – | –
15 | COc1ccnc(C(=S)N[C@@H](C)C(=O)O[C@@H](C)[C@H](Oc2ccc(Cl)cc2)C2CCCC2)c1O [Compound 38] | > 80 | ≤ 80 | > 80 | > 80 | 49 to 57 | – | – | – | – | – | –
16 | COc1ccnc(C(=S)N[C@@H](C)C(=O)O[C@@H](C)[C@H](Oc2ccc(Cl)cc2)C2CCCC2)c1OC(C)=O [Compound 71] | – | – | – | – | – | > 80 | ≤ 80 | > 80 | > 80 | ≤ 80 | –
17 | COc1ccnc(C(=S)N[C@@H](C)C(=O)O[C@@H](C)[C@@H](c2ccccc2)c2ccc(F)cc2C)c1OC(C)=O [Compound 72] | – | – | – | – | – | > 80 | > 80 | > 80 | > 80 | > 80 | > 80
18 | COc1ccnc(C(=S)N[C@@H](C)C(=O)O[C@H](C(C)C)[C@H](C)Oc2ccc(F)cc2)c1OC(C)=O [Compound 73] | – | – | – | – | – | > 80 | > 80 | > 80 | > 80 | > 80 | > 80
19 | COc1ccnc(C(=S)N[C@@H](C)C(=O)O[C@@H](C)[C@H](Oc2ccccc2)c2ccc(F)cc2C)c1OC(C)=O [Compound 74] | – | – | – | – | – | > 80 | > 80 | > 80 | ≤ 80 | ≤ 80 | ≤ 80
20 | COc1ccnc(C(=S)N[C@@H](C)C(=O)O[C@@H](C)[C@H](Oc2ccccc2)c2ccc(F)cc2Cl)c1OC(C)=O [Compound 75] | – | – | – | – | – | > 80 | > 80 | > 80 | ≤ 80 | ≤ 80 | ≤ 80
21 | COc1ccnc(C(=S)N[C@@H](C)C(=O)O[C@@H](C)[C@H](Oc2cccc(F)c2)C(C)C)c1OC(C)=O [Compound 77] | – | – | – | – | – | ≤ 80 | > 80 | > 80 | > 80 | > 80 | ≤ 80
22 | COc1ccnc(C(=S)N[C@@H](C)C(=O)O[C@@H](C)C(c2ccc(F)cc2)c2ccc(F)cc2)c1OC(C)=O [Compound 78] | – | – | – | – | – | > 80 | > 80 | > 80 | ≤ 80 | ≤ 80 | –
